Test system: not listed separately
Test: Ratio of saluretic activity for Na+ over saluretic activity of K+ in rats after peroral administration of 30 mg/kg of compound
Type: functional
Conditions: route oral

Structure (SMILES) | Ratio
NS(=O)(=O)c1cc(N2CCN(CC(O)COc3cccc4ccccc34)CC2)ccc1Cl (centres undefined) | 1.4
NS(=O)(=O)c1cc(S(=O)(=O)NCCNCC(O)COc2cccc3c2SCC(=O)N3)ccc1Cl (centres undefined) | 1.9
NS(=O)(=O)c1cc(NCCNCC(O)COc2cccc3c2SCC(=O)N3)ccc1Cl (centres undefined) | 1.8
NS(=O)(=O)c1cc(C(=O)NCCNCC(O)COc2cccc3c2SCC(=O)N3)ccc1Cl (centres undefined) | 1.5
NS(=O)(=O)c1cc(C(=O)NCCNCC(O)COc2cccc3ccccc23)ccc1Cl (centres undefined) | 1.2

Test system: Rattus norvegicus
Test: Saluretic activity was evaluated for K+ by flame photometry at 8 mg/kg perorally
Type: functional
Conditions: route oral

Structure (SMILES) | Activity
NS(=O)(=O)c1cc(N2CCN(CC(O)COc3cccc4ccccc34)CC2)ccc1Cl (centres undefined) | 1.3 m equiv kg-1
NS(=O)(=O)c1cc(S(=O)(=O)NCCNCC(O)COc2cccc3c2SCC(=O)N3)ccc1Cl (centres undefined) | 1.3 m equiv kg-1
NS(=O)(=O)c1cc(NCCNCC(O)COc2cccc3c2SCC(=O)N3)ccc1Cl (centres undefined) | 1.1 m equiv kg-1
NS(=O)(=O)c1cc(C(=O)NCCNCC(O)COc2cccc3c2SCC(=O)N3)ccc1Cl (centres undefined) | 0.8 m equiv kg-1
NS(=O)(=O)c1cc(C(=O)NCCNCC(O)COc2cccc3ccccc23)ccc1Cl (centres undefined) | 1.2 m equiv kg-1

Test system: Rattus norvegicus
Test: Diuretic activity given as urinary output of 15 mg/kg perorally administered compound in rats
Type: functional, Urine
Conditions: route oral

Structure (SMILES) | Urinary output
NS(=O)(=O)c1cc(N2CCN(CC(O)COc3cccc4ccccc34)CC2)ccc1Cl (centres undefined) | 2.2 mL
NS(=O)(=O)c1cc(S(=O)(=O)NCCNCC(O)COc2cccc3c2SCC(=O)N3)ccc1Cl (centres undefined) | 3.7 mL
NS(=O)(=O)c1cc(NCCNCC(O)COc2cccc3c2SCC(=O)N3)ccc1Cl (centres undefined) | 3.3 mL
NS(=O)(=O)c1cc(C(=O)NCCNCC(O)COc2cccc3ccccc23)ccc1Cl (centres undefined) | 4.8 mL

Test system: Rattus norvegicus
Test: Saluretic activity was evaluated for K+ by flame photometry at 15 mg/kg perorally
Type: functional
Conditions: route oral

Structure (SMILES) | Activity
NS(=O)(=O)c1cc(N2CCN(CC(O)COc3cccc4ccccc34)CC2)ccc1Cl (centres undefined) | 1.4 m equiv kg-1
NS(=O)(=O)c1cc(S(=O)(=O)NCCNCC(O)COc2cccc3c2SCC(=O)N3)ccc1Cl (centres undefined) | 1.3 m equiv kg-1
NS(=O)(=O)c1cc(NCCNCC(O)COc2cccc3c2SCC(=O)N3)ccc1Cl (centres undefined) | 1.3 m equiv kg-1
NS(=O)(=O)c1cc(C(=O)NCCNCC(O)COc2cccc3c2SCC(=O)N3)ccc1Cl (centres undefined) | 0.9 m equiv kg-1
NS(=O)(=O)c1cc(C(=O)NCCNCC(O)COc2cccc3ccccc23)ccc1Cl (centres undefined) | 1.7 m equiv kg-1

Test system: Rattus norvegicus
Test: Saluretic activity was evaluated for Na+ by flame photometry at 15 mg/kg perorally
Type: functional
Conditions: route oral

Structure (SMILES) | Activity
NS(=O)(=O)c1cc(N2CCN(CC(O)COc3cccc4ccccc34)CC2)ccc1Cl (centres undefined) | 1.7 m equiv kg-1
NS(=O)(=O)c1cc(S(=O)(=O)NCCNCC(O)COc2cccc3c2SCC(=O)N3)ccc1Cl (centres undefined) | 3 m equiv kg-1
NS(=O)(=O)c1cc(NCCNCC(O)COc2cccc3c2SCC(=O)N3)ccc1Cl (centres undefined) | 2.6 m equiv kg-1
NS(=O)(=O)c1cc(C(=O)NCCNCC(O)COc2cccc3c2SCC(=O)N3)ccc1Cl (centres undefined) | 1.1 m equiv kg-1
NS(=O)(=O)c1cc(C(=O)NCCNCC(O)COc2cccc3ccccc23)ccc1Cl (centres undefined) | 3.1 m equiv kg-1

Test system: Rattus norvegicus
Test: Diuretic activity given as urinary output of 50 mg/kg perorally administered compound in rats
Type: functional, Urine
Conditions: route oral

Structure (SMILES) | Urinary output
NS(=O)(=O)c1cc(C(=O)NCCNCC(O)COc2cccc3c2SCC(=O)N3)ccc1Cl (centres undefined) | 4.3 mL

Test system: Rattus norvegicus
Test: Diuretic activity given as urinary output at 15 mg/kg perorally
Type: functional, Urine
Conditions: route oral

Structure (SMILES) | Urinary output
NS(=O)(=O)c1cc(C(=O)NCCNCC(O)COc2cccc3c2SCC(=O)N3)ccc1Cl (centres undefined) | 1.7 mL

Test system: Rattus norvegicus
Test: Diuretic activity given as urinary output of 30 mg/kg perorally administered compound in rats
Type: functional, Urine
Conditions: route oral

Structure (SMILES) | Urinary output
NS(=O)(=O)c1cc(N2CCN(CC(O)COc3cccc4ccccc34)CC2)ccc1Cl (centres undefined) | 2.9 mL
NS(=O)(=O)c1cc(S(=O)(=O)NCCNCC(O)COc2cccc3c2SCC(=O)N3)ccc1Cl (centres undefined) | 5.7 mL
NS(=O)(=O)c1cc(NCCNCC(O)COc2cccc3c2SCC(=O)N3)ccc1Cl (centres undefined) | 3.1 mL
NS(=O)(=O)c1cc(C(=O)NCCNCC(O)COc2cccc3c2SCC(=O)N3)ccc1Cl (centres undefined) | 2 mL
NS(=O)(=O)c1cc(C(=O)NCCNCC(O)COc2cccc3ccccc23)ccc1Cl (centres undefined) | 2.9 mL

Test system: Rattus norvegicus
Test: Diuretic activity given as urinary output of 8 mg/kg perorally administered compound in rats
Type: functional, Urine
Conditions: route oral

Structure (SMILES) | Urinary output
NS(=O)(=O)c1cc(N2CCN(CC(O)COc3cccc4ccccc34)CC2)ccc1Cl (centres undefined) | 1.9 mL
NS(=O)(=O)c1cc(S(=O)(=O)NCCNCC(O)COc2cccc3c2SCC(=O)N3)ccc1Cl (centres undefined) | 3.5 mL
NS(=O)(=O)c1cc(NCCNCC(O)COc2cccc3c2SCC(=O)N3)ccc1Cl (centres undefined) | 2.6 mL
NS(=O)(=O)c1cc(C(=O)NCCNCC(O)COc2cccc3c2SCC(=O)N3)ccc1Cl (centres undefined) | 1.2 mL
NS(=O)(=O)c1cc(C(=O)NCCNCC(O)COc2cccc3ccccc23)ccc1Cl (centres undefined) | 5.2 mL

Test system: not listed separately
Test: Ratio of saluretic activity for Na+ over saluretic activity of K+ in rats after peroral administration of 15 mg/kg of compound
Type: functional
Conditions: route oral

Structure (SMILES) | Ratio
NS(=O)(=O)c1cc(N2CCN(CC(O)COc3cccc4ccccc34)CC2)ccc1Cl (centres undefined) | 1.2
NS(=O)(=O)c1cc(S(=O)(=O)NCCNCC(O)COc2cccc3c2SCC(=O)N3)ccc1Cl (centres undefined) | 2.3
NS(=O)(=O)c1cc(NCCNCC(O)COc2cccc3c2SCC(=O)N3)ccc1Cl (centres undefined) | 2
NS(=O)(=O)c1cc(C(=O)NCCNCC(O)COc2cccc3c2SCC(=O)N3)ccc1Cl (centres undefined) | 1.2
NS(=O)(=O)c1cc(C(=O)NCCNCC(O)COc2cccc3ccccc23)ccc1Cl (centres undefined) | 1.8

Test system: Rattus norvegicus
Test: Saluretic activity was evaluated for Na+ by flame photometry at 30 mg/kg perorally
Type: functional
Conditions: route oral

Structure (SMILES) | Activity
NS(=O)(=O)c1cc(N2CCN(CC(O)COc3cccc4ccccc34)CC2)ccc1Cl (centres undefined) | 3.2 m equiv kg-1
NS(=O)(=O)c1cc(S(=O)(=O)NCCNCC(O)COc2cccc3c2SCC(=O)N3)ccc1Cl (centres undefined) | 4.5 m equiv kg-1
NS(=O)(=O)c1cc(NCCNCC(O)COc2cccc3c2SCC(=O)N3)ccc1Cl (centres undefined) | 2.2 m equiv kg-1
NS(=O)(=O)c1cc(C(=O)NCCNCC(O)COc2cccc3c2SCC(=O)N3)ccc1Cl (centres undefined) | 1.7 m equiv kg-1
NS(=O)(=O)c1cc(C(=O)NCCNCC(O)COc2cccc3ccccc23)ccc1Cl (centres undefined) | 1.8 m equiv kg-1

Test system: Rattus norvegicus
Test: Saluretic activity was evaluated for K+ by flame photometry at 50 mg/kg perorally
Type: functional
Conditions: route oral

Structure (SMILES) | Activity
NS(=O)(=O)c1cc(C(=O)NCCNCC(O)COc2cccc3c2SCC(=O)N3)ccc1Cl (centres undefined) | 1.5 m equiv kg-1

Test system: not listed separately
Test: Ratio of saluretic activity for Na+ over saluretic activity of K+ in rats after peroral administration of 50 mg/kg of compound
Type: functional
Conditions: route oral

Structure (SMILES) | Ratio
NS(=O)(=O)c1cc(C(=O)NCCNCC(O)COc2cccc3c2SCC(=O)N3)ccc1Cl (centres undefined) | 2.1

Test system: Rattus norvegicus
Test: Saluretic activity was evaluated for Na+ by flame photometry at 50 mg/kg perorally
Type: functional
Conditions: route oral

Structure (SMILES) | Activity
NS(=O)(=O)c1cc(C(=O)NCCNCC(O)COc2cccc3c2SCC(=O)N3)ccc1Cl (centres undefined) | 3.1 m equiv kg-1

Test system: Rattus norvegicus
Test: Saluretic activity was evaluated for Na+ by flame photometry at 8 mg/kg perorally
Type: functional
Conditions: route oral

Structure (SMILES) | Activity
NS(=O)(=O)c1cc(N2CCN(CC(O)COc3cccc4ccccc34)CC2)ccc1Cl (centres undefined) | 2.4 m equiv kg-1
NS(=O)(=O)c1cc(S(=O)(=O)NCCNCC(O)COc2cccc3c2SCC(=O)N3)ccc1Cl (centres undefined) | 3.2 m equiv kg-1
NS(=O)(=O)c1cc(NCCNCC(O)COc2cccc3c2SCC(=O)N3)ccc1Cl (centres undefined) | 2.1 m equiv kg-1
NS(=O)(=O)c1cc(C(=O)NCCNCC(O)COc2cccc3c2SCC(=O)N3)ccc1Cl (centres undefined) | 0.9 m equiv kg-1
NS(=O)(=O)c1cc(C(=O)NCCNCC(O)COc2cccc3ccccc23)ccc1Cl (centres undefined) | 2.5 m equiv kg-1

Test system: not listed separately
Test: Ratio of saluretic activity for Na+ over saluretic activity of K+ in rats after peroral administration of 8 mg/kg of compound
Type: functional
Conditions: route oral

Structure (SMILES) | Ratio
NS(=O)(=O)c1cc(N2CCN(CC(O)COc3cccc4ccccc34)CC2)ccc1Cl (centres undefined) | 1.8
NS(=O)(=O)c1cc(S(=O)(=O)NCCNCC(O)COc2cccc3c2SCC(=O)N3)ccc1Cl (centres undefined) | 2.5
NS(=O)(=O)c1cc(NCCNCC(O)COc2cccc3c2SCC(=O)N3)ccc1Cl (centres undefined) | 1.9
NS(=O)(=O)c1cc(C(=O)NCCNCC(O)COc2cccc3c2SCC(=O)N3)ccc1Cl (centres undefined) | 1.1
NS(=O)(=O)c1cc(C(=O)NCCNCC(O)COc2cccc3ccccc23)ccc1Cl (centres undefined) | 2.1

Test system: Rattus norvegicus
Test: Saluretic activity was evaluated for K+ by flame photometry at 30 mg/kg perorally
Type: functional
Conditions: route oral

Structure (SMILES) | Activity
NS(=O)(=O)c1cc(N2CCN(CC(O)COc3cccc4ccccc34)CC2)ccc1Cl (centres undefined) | 2 m equiv kg-1
NS(=O)(=O)c1cc(S(=O)(=O)NCCNCC(O)COc2cccc3c2SCC(=O)N3)ccc1Cl (centres undefined) | 2.4 m equiv kg-1
NS(=O)(=O)c1cc(NCCNCC(O)COc2cccc3c2SCC(=O)N3)ccc1Cl (centres undefined) | 1.2 m equiv kg-1
NS(=O)(=O)c1cc(C(=O)NCCNCC(O)COc2cccc3c2SCC(=O)N3)ccc1Cl (centres undefined) | 1.1 m equiv kg-1
NS(=O)(=O)c1cc(C(=O)NCCNCC(O)COc2cccc3ccccc23)ccc1Cl (centres undefined) | 1.4 m equiv kg-1

— ChEMBL document CHEMBL1126665, “o-Chlorobenzenesulfonamidic derivatives of (aryloxy)propanolamines as beta-blocking/diuretic agents” (J Med Chem, 1993)
